13 compounds from article PMC8286840, “Identifying SARS-CoV-2 antiviral compounds by screening for small molecule inhibitors of Nsp3 papain-like protease” (Biochemical Journal, 2021) can be followed below.

For assay [1], the target named is T1, SARS-CoV-2 PLpro (nsp3 1564–1878) (Severe acute respiratory syndrome coronavirus 2, UniProt P0DTD1). In words: biochemical. Also on record: FRET-quenched peptide (Pro3) cleavage by PLpro, 10 min pre-incubation, slope over 20 min, normalised to no-compound control. The note with it: low concentration screen, read-out: % of control remaining.
In assay [2] the target is T1, SARS-CoV-2 PLpro (nsp3 1564–1878). The assay is described as follows: biochemical. The note with it: high concentration screen, read-out: % of control remaining. Also noted: FRET-quenched peptide (Pro3) cleavage by PLpro, 10 min pre-incubation, slope over 20 min, normalised to no-compound control.

Molecules are shown by their SMILES. Where a name gives a salt, the structure may show the parent alone. Read-outs that look alike come from different tables or passages of the source.

On to `CCCCC[C@H](O)/C=C/[C@H]1[C@H](O)CC(=O)[C@@H]1CCCCCCC(=O)O` [Prostaglandin E1], for which the remaining activity at 1.25 µM was determined as 92.3% in assay [1] (Well no.=2192); 95.3% in assay [1] (Well no.=3090); 103% in assay [1] (Well no.=4473); 93.1% in assay [1] (Well no.=4475); 91.2% in assay [1] (Well no.=8109). The remaining activity at 3.75 µM came out at 91.2% in assay [2] (Well no.=2192); 97% in assay [2] (Well no.=3090); 101% in assay [2] (Well no.=4473); 94.7% in assay [2] (Well no.=4475); 95% in assay [2] (Well no.=8109).

As for `CCCCC[C@H](O)/C=C/[C@H]1[C@H](O)CC(=O)[C@@H]1C/C=C\CCCC(=O)O` [Prostaglandin E2], the remaining activity at 1.25 µM in assay [1] (Well no.=1625) is 100%; in assay [1] (Well no.=3092), 98.6%; in assay [1] (Well no.=4477), 99.7%; in assay [1] (Well no.=6151), 106%; in assay [1] (Well no.=8105), 94.3%. The remaining activity at 3.75 µM in assay [2] (Well no.=1625) turned out to be 103%; in assay [2] (Well no.=3092), 101%; in assay [2] (Well no.=6151) it was 110%; in assay [2] (Well no.=8105), 95.4%.

For `CCCCC[C@H](O)/C=C/[C@@H]1[C@H]2C/C(=C/CCCC(=O)O)O[C@H]2C[C@H]1O` [Prostaglandin I2 Na], the remaining activity at 1.25 µM in assay [1] (Well no.=4483) amounted to 99%. For the same compound, the remaining activity at 3.75 µM in assay [2] (Well no.=4483) worked out at 102%.

Regarding `CCCc1cc(C(N)=S)ccn1` [Prothionamide], the remaining activity at 1.25 µM in assay [1] (Well no.=2147) amounted to 97%. The remaining activity at 3.75 µM in assay [2] (Well no.=2147) turned out to be 99.4%.

On to `O=C(O)c1ccc(O)c(O)c1` [Protocatechuic acid], for which the remaining activity at 1.25 µM in assay [1] (Well no.=4047) came to 99.6%. The remaining activity at 3.75 µM in assay [2] (Well no.=4047) is 101%.

`CN1CCc2cc3c(cc2C(=O)Cc2cc4c(cc2C1)OCO4)OCO3` [Protopine]: the remaining activity at 1.25 µM in assay [1] (Well no.=3195) was determined as 105%. In addition, the remaining activity at 3.75 µM in assay [2] (Well no.=3195) is 104%.

As for `C=CC1=C(C)c2cc3[nH]c(cc4nc(cc5[nH]c(cc1n2)c(C)c5CCC(=O)O)C(CCC(=O)O)=C4C)c(C)c3C=C` [Protoporphyrin IX disodium], the remaining activity at 1.25 µM in assay [1] (Well no.=1207) was 104%. The remaining activity at 3.75 µM in assay [2] (Well no.=1207) amounted to 102%.

Take `CNCCCC1c2ccccc2C=Cc2ccccc21` [Protriptyline hydrochloride]: the remaining activity at 1.25 µM in assay [1] (Well no.=1209) was found to be 108%. The remaining activity at 3.75 µM in assay [2] (Well no.=1209) came out at 104%.

As to `CC(O)Cn1cnc2c1c(=O)n(C)c(=O)n2C` (centres unmarked) [Proxyphylline], the remaining activity at 1.25 µM in assay [1] (Well no.=6220) came to 94.5%; in assay [1] (Well no.=8073) it was 105%. The remaining activity at 3.75 µM in assay [2] (Well no.=6220) is 94%; in assay [2] (Well no.=8073), 108%.

On to `COCCCN1CCC(NC(=O)c2cc(Cl)c(N)c3c2OCC3)CC1` [Prucalopride (succinate)], for which the remaining activity at 1.25 µM in assay [1] (Well no.=7675) amounted to 100%. Besides, the remaining activity at 3.75 µM in assay [2] (Well no.=7675) was found to be 103%.

Regarding `COCCCN1CCC(NC(=O)c2cc(Cl)c(N)c3c2OCC3)CC1` [Prucalopride], the remaining activity at 1.25 µM in assay [1] (Well no.=4835) was found to be 99.7%; in assay [1] (Well no.=8143) it was 103%. Besides, the remaining activity at 3.75 µM in assay [2] (Well no.=4835) is 98.1%; in assay [2] (Well no.=8143), 101%.

In the case of `COc1ccc(C[C@H](N)C(=O)N[C@H]2[C@@H](O)[C@H](n3cnc4c(N(C)C)ncnc43)O[C@@H]2CO)cc1` [Puromycin], the figures for the remaining activity at 1.25 µM in assay [1] (Well no.=1674) and in assay [1] (Well no.=3350) were 98.5% and 93.8%, respectively. The remaining activity at 3.75 µM came out at 97.6% in assay [2] (Well no.=1674) and 90.4% in assay [2] (Well no.=3350).

For `CC(C)[C@H](CO)Nc1nc(Nc2cccc(Cl)c2)c2ncn(C(C)C)c2n1` [Purvalanol A - (2R)-2-[[6-[(3-Chlorophenyl)amino]-9-(1-methylethyl)-9H-purin-2-yl]amino]-3-methyl-1-butanol], the remaining activity at 1.25 µM in assay [1] (Well no.=2434) is 105%. Also, the remaining activity at 3.75 µM in assay [2] (Well no.=2434) turned out to be 105%.
